{"source": "ChEMBL document CHEMBL5029197", "about": "“Synthesis and Metabolism of BTN3A1 Ligands: Studies on Diene Modifications to the Phosphoantigen Scaffold” (ACS Med Chem Lett, 2022)", "key": {"[1]": {"test": "(§1) Induction of cell proliferation in human Vgamma9Vdelta2-T cells stimulated with human PBMC for 3 days followed by compound washout and supplemented with IL2 every 3 days for 11 days by flow cytometry analysis", "format": "functional, cell-based"}, "[2]": {"test": "(§2) Induction of IFN-gamma production in human Vgamma9Vdelta2-T cells incubated for 240 mins with compound-loaded K562 cells followed by compound washout and measured after 20 hrs by ELISA", "format": "functional, cell-based", "conditions": "Vgamma9Vdelta2 T cell"}, "[3]": {"test": "(§3) Induction of IFN-gamma production in human Vgamma9Vdelta2-T cells incubated for 4 mins with compound-loaded K562 cells followed by compound washout and measured after 20 hrs by ELISA", "format": "functional, cell-based", "conditions": "Vgamma9Vdelta2 T cell"}, "[4]": {"test": "Stability of compound in human plasma assessed as parent compound remaining at 100 uM measured after 24 hrs by LC-MS analysis", "format": "ADME, cell-free", "conditions": "for remaining at 24 h, 100 µM: read-out: Stability; for Stability: 24 h, 100 µM"}, "[5]": {"test": "Stability of compound in human plasma assessed as parent compound remaining at 100 uM measured after 2 hrs by LC-MS analysis", "format": "ADME, cell-free", "conditions": "for remaining at 2 h, 100 µM: read-out: Stability; for Stability: 2 h, 100 µM"}, "[6]": {"test": "(§4) Induction of IFN-gamma production in human Vgamma9Vdelta2-T cells incubated for 60 mins with compound-loaded K562 cells followed by compound washout and measured after 20 hrs by ELISA", "format": "functional, cell-based", "conditions": "Vgamma9Vdelta2 T cell"}, "K562": {"test_system": "K562", "test": "Cytotoxicity against human K562 cells assessed as reduction in cell viability measured after 72 hrs by colorimetric assay", "format": "cell-based", "conditions": "k562, 72 h"}, "[7]": {"test": "Drug metabolism in human K562 cells assessed as free phosphonic diacid metabolite formation at 100 uM incubated for 1 hr by LC-MS analysis", "format": "ADME, cell-based", "conditions": "k562, 1 h"}, "[8]": {"test": "(§5) Induction of IFN-gamma production in human Vgamma9Vdelta2-T cells incubated for 15 mins with compound-loaded K562 cells followed by compound washout and measured after 20 hrs by ELISA", "format": "functional, cell-based", "conditions": "Vgamma9Vdelta2 T cell"}, "Vgamma9Vdelta2-T cell [9]": {"test_system": "Vgamma9Vdelta2-T cell", "test": "as §1", "format": "functional, cell-based", "conditions": "time 3.0 day"}, "Vgamma9Vdelta2-T cell [10]": {"test_system": "Vgamma9Vdelta2-T cell", "test": "as §2", "format": "functional, cell-based"}, "Vgamma9Vdelta2-T cell [11]": {"test_system": "Vgamma9Vdelta2-T cell", "test": "as §3", "format": "functional, cell-based"}, "Vgamma9Vdelta2-T cell [12]": {"test_system": "Vgamma9Vdelta2-T cell", "test": "as §4", "format": "functional, cell-based"}, "Vgamma9Vdelta2-T cell [13]": {"test_system": "Vgamma9Vdelta2-T cell", "test": "as §5", "format": "functional, cell-based"}, "[14]": {"test": "Drug metabolism in human K562 cells assessed as monoacid methyl ester metabolite formation at 100 uM incubated for 1 hr by LC-MS analysis", "format": "ADME, cell-based", "conditions": "k562, 1 h"}, "[15]": {"molecular_target": "Butyrophilin subfamily 3 member A1 (Homo sapiens) (UniProt O00481)", "sequence (O00481 30-513 limits assumed)": "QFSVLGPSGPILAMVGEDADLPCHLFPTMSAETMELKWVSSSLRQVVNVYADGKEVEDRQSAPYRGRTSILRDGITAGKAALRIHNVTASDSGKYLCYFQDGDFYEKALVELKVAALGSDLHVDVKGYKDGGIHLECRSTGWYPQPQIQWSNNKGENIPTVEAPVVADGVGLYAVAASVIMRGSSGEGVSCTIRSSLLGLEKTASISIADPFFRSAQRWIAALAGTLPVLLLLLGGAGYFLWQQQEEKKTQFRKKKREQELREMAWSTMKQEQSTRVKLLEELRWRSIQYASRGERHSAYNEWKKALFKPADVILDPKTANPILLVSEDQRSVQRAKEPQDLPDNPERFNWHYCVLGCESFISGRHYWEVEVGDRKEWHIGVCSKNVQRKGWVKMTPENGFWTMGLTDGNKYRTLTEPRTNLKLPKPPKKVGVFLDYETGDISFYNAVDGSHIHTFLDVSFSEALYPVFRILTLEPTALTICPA", "test": "Displacement of GDP-BODIPY probe from BTN3A1 full intracellular domain (unknown origin) at […] measured after 60 mins by fluorescence polarization assay"}}, "note": "Active and inactive are the calls of the source. The calls are words filed in the database; no cut-off is given here.", "data": [{"smiles": "CC(C)=C/C=C/P(=O)(OCOC(=O)C(C)(C)C)Oc1ccccc1", "note": "(configuration not stated)", "values": [{"measurement": "EC50", "setting": "[1]", "value": 0.75, "unit": "µM"}, {"measurement": "EC50", "setting": "[2]", "value": 9.1, "unit": "µM"}, {"measurement": "EC50", "setting": "[3]", "value": "> 100", "unit": "µM"}, {"measurement": "remaining at 24 h, 100 µM", "setting": "[4]", "value": 16, "unit": "%"}, {"measurement": "remaining at 2 h, 100 µM", "setting": "[5]", "value": 48, "unit": "%"}, {"measurement": "EC50", "setting": "[6]", "value": 29, "unit": "µM"}, {"measurement": "Activity", "setting": "K562", "value": 100, "unit": "µM"}, {"measurement": "Drug metabolism", "setting": "[7]", "value": "Metabolite_Detected"}, {"measurement": "EC50", "setting": "[8]", "value": "> 100", "unit": "µM"}]}, {"smiles": "CC(C)=C/C=C/P(=O)(Oc1ccccc1)Oc1ccccc1", "values": [{"measurement": "Activity", "setting": "Vgamma9Vdelta2-T cell [9]", "value": "inactive"}, {"measurement": "Activity", "setting": "Vgamma9Vdelta2-T cell [10]", "value": "inactive"}, {"measurement": "Activity", "setting": "Vgamma9Vdelta2-T cell [11]", "value": "inactive"}, {"measurement": "remaining at 24 h, 100 µM", "setting": "[4]", "value": 73, "unit": "%"}, {"measurement": "remaining at 2 h, 100 µM", "setting": "[5]", "value": 89, "unit": "%"}, {"measurement": "Activity", "setting": "Vgamma9Vdelta2-T cell [12]", "value": "inactive"}, {"measurement": "Activity", "setting": "K562", "value": "> 100", "unit": "µM"}, {"measurement": "Activity", "setting": "Vgamma9Vdelta2-T cell [13]", "value": "inactive"}, {"measurement": "Drug metabolism", "setting": "[14]", "value": "Metabolite_Notdetected"}]}, {"smiles": "CC(C)=C/C=C/P(=O)(OCOC(=O)C(C)(C)C)OCOC(=O)C(C)(C)C", "values": [{"measurement": "EC50", "setting": "[1]", "value": 0.29, "unit": "µM"}, {"measurement": "EC50", "setting": "[2]", "value": 18, "unit": "µM"}, {"measurement": "EC50", "setting": "[3]", "value": "> 100", "unit": "µM"}, {"measurement": "Stability", "setting": "[4]", "value": "Unstable"}, {"measurement": "remaining at 2 h, 100 µM", "setting": "[5]", "value": 6, "unit": "%"}, {"measurement": "EC50", "setting": "[6]", "value": 52, "unit": "µM"}, {"measurement": "Activity", "setting": "K562", "value": "> 100", "unit": "µM"}, {"measurement": "Drug metabolism", "setting": "[7]", "value": "Metabolite_Detected"}, {"measurement": "EC50", "setting": "[8]", "value": "> 100", "unit": "µM"}]}, {"smiles": "COP(=O)(/C=C/C=C(C)C)OCOC(=O)C(C)(C)C", "note": "(configuration not stated)", "values": [{"measurement": "EC50", "setting": "[1]", "value": 0.13, "unit": "µM"}, {"measurement": "EC50", "setting": "[2]", "value": 11, "unit": "µM"}, {"measurement": "EC50", "setting": "[3]", "value": "> 100", "unit": "µM"}, {"measurement": "remaining at 24 h, 100 µM", "setting": "[4]", "value": 4, "unit": "%"}, {"measurement": "remaining at 2 h, 100 µM", "setting": "[5]", "value": 62, "unit": "%"}, {"measurement": "EC50", "setting": "[6]", "value": 37, "unit": "µM"}, {"measurement": "Activity", "setting": "K562", "value": 20, "unit": "µM"}, {"measurement": "EC50", "setting": "[8]", "value": 98, "unit": "µM"}, {"measurement": "Drug metabolism", "setting": "[14]", "value": "Metabolite_Detected"}]}, {"smiles": "CC(=O)OC/C(C)=C/C=C/P(=O)(OCOC(=O)C(C)(C)C)OCOC(=O)C(C)(C)C", "values": [{"measurement": "EC50", "setting": "[1]", "value": 60, "unit": "µM"}, {"measurement": "EC50", "setting": "[2]", "value": 38, "unit": "µM"}, {"measurement": "EC50", "setting": "[3]", "value": "> 100", "unit": "µM"}, {"measurement": "Stability", "setting": "[4]", "value": "Unstable"}, {"measurement": "Stability", "setting": "[5]", "value": "Unstable"}, {"measurement": "EC50", "setting": "[6]", "value": "> 100", "unit": "µM"}, {"measurement": "Activity", "setting": "K562", "value": "> 100", "unit": "µM"}, {"measurement": "Drug metabolism", "setting": "[7]", "value": "Metabolite_Detected"}, {"measurement": "EC50", "setting": "[8]", "value": "> 100", "unit": "µM"}]}, {"smiles": "C/C(=C\\CCP(=O)(O)O)CO", "values": [{"measurement": "Activity", "setting": "[15]", "value": "inactive"}]}, {"smiles": "C/C(=C\\C=C\\P(=O)(O)O)CO", "values": [{"measurement": "EC50", "setting": "[1]", "value": 15, "unit": "µM"}, {"measurement": "Activity", "setting": "K562", "value": "> 100", "unit": "µM"}, {"measurement": "Activity", "setting": "[15]", "value": "Active"}]}, {"smiles": "C/C(=C\\CCP(=O)(OCOC(=O)C(C)(C)C)OCOC(=O)C(C)(C)C)CO", "values": [{"measurement": "EC50", "setting": "[2]", "value": 0.024, "unit": "µM"}, {"measurement": "Stability", "setting": "[4]", "value": "Unstable"}, {"measurement": "Stability", "setting": "[5]", "value": "Unstable"}, {"measurement": "EC50", "setting": "[6]", "value": 0.03, "unit": "µM"}, {"measurement": "Activity", "setting": "K562", "value": "> 100", "unit": "µM"}, {"measurement": "EC50", "setting": "[8]", "value": 0.043, "unit": "µM"}]}, {"smiles": "COC(=O)[C@H](C)NP(=O)(/C=C/C=C(C)C)Oc1ccccc1", "note": "(some centres not stated)", "values": [{"measurement": "EC50", "setting": "[1]", "value": 11, "unit": "µM"}, {"measurement": "EC50", "setting": "[2]", "value": 75, "unit": "µM"}, {"measurement": "EC50", "setting": "[3]", "value": "> 100", "unit": "µM"}, {"measurement": "remaining at 24 h, 100 µM", "setting": "[4]", "value": 63, "unit": "%"}, {"measurement": "remaining at 2 h, 100 µM", "setting": "[5]", "value": 69, "unit": "%"}, {"measurement": "EC50", "setting": "[6]", "value": "> 100", "unit": "µM"}, {"measurement": "Activity", "setting": "K562", "value": "> 100", "unit": "µM"}, {"measurement": "Drug metabolism", "setting": "[7]", "value": "Metabolite_Detected"}, {"measurement": "EC50", "setting": "[8]", "value": "> 100", "unit": "µM"}]}, {"smiles": "CC(C)=C/C=C/P(=O)([O-])[O-].[Na+].[Na+]", "values": [{"measurement": "EC50", "setting": "[1]", "value": "> 100", "unit": "µM"}, {"measurement": "Activity", "setting": "K562", "value": "> 100", "unit": "µM"}, {"measurement": "Activity", "setting": "[15]", "value": "Active"}]}]}
